Results reported in patent US20050170345A1, “Neuroglobin is up-regulated by and protects neurons from hypoxic-ischemic injury” (priority 2001, published 2005).
Entries after “also recorded” stand apart in the source; their conditions may differ.

Columns and labels:
Ngb mRNA = Ngb mRNA expression in HN33 cells (RT-PCR, quantitative RT-PCR, Northern blot); assay type: cell-based, mouse
Method: (§1) HN33 cells were cultured as described (Lee et al. (1990) J Neurosci. 10: 1779-1787; Shi et al. (1998) J Neurochem., 70:1035-1044; Jin et al. (2000) Proc Nati Acad Sci USA., 97:10242-10247). Cells were plated at 4×10^5 cells/well onto uncoated, 6-well plastic culture dishes in Dulbecco's modified Eagle's medium containing 10% (v/v) fetal bovine serum, 100 units/ml of penicillin and 100 μg/ml of streptomycin, and maintained at 37° C. in humidified 95% air/5% CO2. Cells were treated with hemin (typically 50 μM) or 8-Br-cGMP (10 μM) for up to 3 days, without daily replacement. To suppress sGC or PKG activity, cells were pretreated for 1 hour with inhibitors before adding other reagents.
RT-PCR and Northern blot analyses were carried out as described previously (Zhu and Zhang (1999) Biochem Biophys Res Commun., 258:87-93). Briefly, total RNA from treated and untreated cells was extracted using a RNeasy Mini Kit (QIAGEN Operon, Valencia, Calif.), and DNA-free total RNA (2 μg per sample) was reverse-transcribed into first-strand cDNA using the Reverse Transcription System and Oligo-dT12-18 (GIBCO-BRL, Rockville, Md.) (Id.). Sequences of the primers used for PCR amplification were: Ngb forward, 5′ CTCTGGAACATGGCACTGTC 3′ (nt 135-154, SEQ ID NO:7); Ngb reverse, 5′ GCACTGGCTCGTCTCTTACT 3′ (nt 547-528, SEQ ID NO:8); β-actin forward, 5′ CACAGGCATTGTGATGGACTC 3′ (nt 524-544, SEQ ID NO:9); β-actin reverse, 5′ GCTCAGGAGGAGCAATGATCT 3′ (nt 582-563, (SEQ ID NO:10). Primers were designed based on the published sequences of these genes and were synth esized by QIAGEN Operon. All PCR primer pairs gave rise to only one discrete band of the expected size. PCR reactions were carried out in a total volume of 25 μl containing 2 μl cDNA, 1×PCR buffer (Boehringer Mannheim, Mannheim, FRG), 200 μM dNTPs, 0.6 U Taq DNA polymerase (Boehringer Mannheim), and 0.2 μM primers. The optimal conditions for amplification (temperature and cycle number) were determined experimentally according to previously published procedures (Id.). Different ratios of Ngb to b-actin primer pairs were tested to ensure that Ngb and b-actin were amplified with similar efficiency, and a kinetic study was undertaken to establish the number of cycles sufficient to detect both Ngb and b-actin without reaching saturation for either. The parameters chosen for PCR amplification were 95° C. for 1 minute, 57° C. for 45 seconds, 72° C. for 1 minute for 25-30 cycles, and a final incubation at 72° C. for 10 minutes. PCR products were separated on 1.2% agarose gels, visualized by ethidium bromide staining, and quantified using a ChemiImage System (Alpha Innotech Corporation, San Leandro, Calif.).
For Northern blotting, 15 μg of total RNA from each sample was fractionated on 1% formaldehyde/agarose gels and transferred to Hybond-N nylon membranes (Amersham Pharmacia, Piscataway, N.J.). Filters were hybridized with probes for Ngb MRNA, and β-actin mRNA at 68° C. in hybridization buffer (Clontech, Palo Alto, Calif.). ^32P-radiolabeled DNA probes were synthesized using cDNA obtained from RT-PCR amplification.
Quantitative RT-PCR analysis was carried out as described previously.8 PCR reactions were carried out in a total volume of 25 μl containing 1 μI cDNA, 1×PCR buffer (Boehringer Mannheim), 200 μM dNTPs, 0.6 U Taq DNA polymerase (Boehringer Mannheim), two pairs of primers (one pair for the Ngb gene, another for the b-actin gene used as an internal control). The optimal conditions for amplification (the proportion between the two pairs of primers, temperatures, and cycle numbers) were determined experimentally according to previously established procedures.8 PCR products were separated on 1.2% agarose gels, visualized by ethidium bromide staining, and quantified using a ChemiImage System (Alpha Innotech Corporation).

Ngb protein = Ngb protein expression in HN33 cells (Western blot); assay type: cell-based, mouse
Method: as §1
Cells were washed twice in PBS, and whole-cell extracts were prepared by adding 10 volumes of 1× sample buffer containing 2% SDS, 100 mM dithiothreitol, 60 mM Tris (pH 6.8) and 10% glycerol, and boiled for 5 minutes. Protein concentrations were determined using Bradford Protein Assays (Bio-Rad, Hercules, Calif.); 30 μg of protein was analyzed by 12% or 15% SDS-PAGE and transferred to Immuno-Blot PVDF membranes (Bio-Rad). Membranes were probed with affinity-purified anti-Ngb antibody, which was produced by immunizing with a synthetic peptide corresponding to amino-acids 35-50 (NH2-CLSSPEFLDHIRKVML-COOH, (SEQ ID NO:11) of mouse Ngb (Sun et aL (2001 Proc Natl Acad Sci USA. 98:15306-15311),and the signal was detected with Boehringer Mannheim chemiluminescence blotting kits. Differences in protein expression on Western blots were quantified using a GS-710 calibrated imaging densitometer and Quantity One software (Bio-Rad).

HN33 cells = assay: HN33 cell viability (MTT); assay type: cell-based, mouse
Method: Cell viability was assessed by measuring formazan produced by the reduction of 3-(4,5-dimethylthiazol-2-yl)-2,5-diphenyl tetrazolium bromide (MTT) in viable cells.3 Cells were incubated with 5 mg/ml of MTT (Sigma) at 37° C. for 2 hours. The medium was removed and cells were solubilized with dimethylsufoxide and transferred to 96-well plates. The formazan reduction product was detected by measuring absorbance at 570 nm in a Cytofluor Series 4000 multi-well plate-reader (PerSeptive Biosystems, Framingham, Mass.). Results were expressed as a percentage of control absorbance, measured in normoxic cultures, after subtracting background absorbance (measured in freeze-thawed cultures) from all values.

cGMP = assay: Intracellular cGMP content in HN33 cells (enzyme immunoassay); assay type: cell-based, mouse
Method: HN33 cells (4×10^4 cells in 100 μl) were plated on 96-well microtiter plates and treated with 50 μM hemin for 2, 8, 16, or 24 hours. Intracellular cGMP concentrations were measured in quadruplicate using a cGMP enzyme-immunoassay system (Amersham Pharmacia).

[1] = test system: transient forebrain ischemia; conditions: rats, direct administration after transient forebrain ischemia; cited from earlier work
K562 cells = conditions: 50 μM hemin for 2-3 days; cited from earlier work
[2] = test system: vascular endothelial growth factor; conditions: aortic smooth muscle cells; cited from earlier work

hemin
maximal increase in neuroglobin mRNA level (Ngb mRNA; 50 μM hemin, 8-24 hours): about 4 fold | Ngb mRNA levels (Northern blot) (Ngb mRNA; HN33 cells, 50 μM hemin for 16 hours): about 4 fold | Maximal induction of Ngb mRNA expression (RT-PCR, normalized for β-actin) (Ngb mRNA; HN33 cells, hemin 24 h, maximal at 25-50 μM): 4 fold | maximal increase in neuroglobin protein level (Ngb protein; 50 μM hemin, 8-24 hours): about 4 fold | persistence of Ngb protein induction (Ngb protein; HN33 cells, 50 μM hemin): at least 3 days | time at which induction of Ngb protein was evident (Ngb protein; HN33 cells, 50 μM hemin): 2 h | induction of Ngb protein (Ngb protein; HN33 cells, 50 μM hemin for up to 3 days): about 4 times basal levels of expression | difference in viability relative to control (HN33 cells; 100 μM hemin, 24 hours, HN33 cells): significant (P<0.05) difference in viability | reduction of cell viability (HN33 cells; 100 μM hemin, HN33 cells, MTT): ~15% | effect on HN33 cell viability (HN33 cells; hemin 0-50 μM for 24 h, or 50 μM for up to 3 days, MTT): no effect on cell viability; also recorded: does not alter HN33 cell viability | cGMP levels by 24 hours (cGMP; 50 μM hemin): returned to near basal levels | increase in cGMP levels (cGMP; 50 μM hemin for 2 to 12 hours): 8- to 15 fold | increase in cGMP levels (summary) (cGMP; hemin): > 10 fold | neuroprotection: viable neurons in cerebral cortex and striatum [1]: significantly increases the number of viable neurons | cells producing a high level of hemoglobin (K562 cells): more than 50% | effect on hypoxic induction of vascular endothelial growth factor [2]: suppress
